From ChEMBL document CHEMBL6109147, “Discovery of Potent STING Inhibitors Bearing a Difluorobenzodioxol Structural Motif as Potent Anti-Inflammatory Agents” (J Med Chem, 2025)
The source made the active and inactive calls. The calls are words filed in the database; no cut-off is given here.

How the values were obtained:
[1] = molecular target: T1, Stimulator of interferon genes protein (Mus musculus, UniProt Q3TBT3); experiment: Inhibition of mouse STING in mouse RAW cells assessed as secreted luciferase reporter of interferon stimulated gene (ISG) measured after 24 hrs incubation by QUANTI-Luc detection assay; assay type: cell-based
T1 sequence (Q3TBT3 whole entry): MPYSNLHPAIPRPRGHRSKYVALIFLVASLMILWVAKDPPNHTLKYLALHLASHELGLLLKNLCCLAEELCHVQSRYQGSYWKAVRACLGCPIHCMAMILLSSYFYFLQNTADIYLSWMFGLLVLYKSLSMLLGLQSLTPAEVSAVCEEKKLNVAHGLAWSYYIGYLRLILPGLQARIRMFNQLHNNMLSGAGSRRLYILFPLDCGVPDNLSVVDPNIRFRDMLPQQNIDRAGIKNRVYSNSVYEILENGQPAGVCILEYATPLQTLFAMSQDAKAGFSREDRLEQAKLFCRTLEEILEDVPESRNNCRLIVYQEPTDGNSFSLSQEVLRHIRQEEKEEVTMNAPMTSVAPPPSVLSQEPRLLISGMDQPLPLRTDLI

[2] = Half life in Sprague-Dawley rat at 1 mg/kg, iv; assay type: ADME, organism-based; settings: in vivo
[3] = MRT (0 to infinity) in Sprague-Dawley rat at 1 mg/kg, iv; assay type: ADME, organism-based; settings: Sprague-Dawley, in vivo
[4] = MRT (0 to infinity) in Sprague-Dawley rat at 3 mg/kg, po; assay type: ADME, organism-based; settings: in vivo
[5] = Metabolic stability in rat liver microsomes assessed as half life; assay type: ADME, Microsome
[6] = Metabolic stability in human liver microsomes assessed as half life; assay type: ADME, Microsome
[7] = Metabolic stability in mouse liver microsomes assessed as liver intrinsic clearance; assay type: ADME, Microsome
[8] = Metabolic stability in human liver microsomes assessed as liver intrinsic clearance; assay type: ADME, Microsome
[9] = molecular target: Stimulator of interferon genes protein (Homo sapiens) (UniProt Q86WV6); experiment: Inhibition of STING in human THP1-Dual cells assessed as inhibition of HT-DNA induced cGAS activation measured after 1 hr incubation followed by stimulated with HT-DNA by Western blotting analysis; assay type: cell-based
Chain of Stimulator of interferon genes protein (Homo sapiens) (Q86WV6 whole entry): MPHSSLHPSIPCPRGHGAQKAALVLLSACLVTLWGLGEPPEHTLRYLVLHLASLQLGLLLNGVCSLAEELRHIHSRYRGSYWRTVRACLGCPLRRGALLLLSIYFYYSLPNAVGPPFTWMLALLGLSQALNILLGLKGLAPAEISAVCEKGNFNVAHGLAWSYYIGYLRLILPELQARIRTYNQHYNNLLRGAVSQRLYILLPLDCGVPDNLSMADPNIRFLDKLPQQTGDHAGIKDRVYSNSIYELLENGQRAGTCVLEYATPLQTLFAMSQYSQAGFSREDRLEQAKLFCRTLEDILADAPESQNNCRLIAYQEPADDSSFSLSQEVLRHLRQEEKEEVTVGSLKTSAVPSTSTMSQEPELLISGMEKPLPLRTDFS

[10] = molecular target: Stimulator of interferon genes protein (Homo sapiens) (UniProt Q86WV6); experiment: Inhibition of STING downstream signalling in human THP1-Dual cells assessed as inhibition of HT-DNA induced IP-10 mRNA expression at 0.3 to 3 uM pre-treated for 1 hr followed by stimulated with HT-DNA measured after 4 hrs by real-time PCR analysis; assay type: cell-based; settings: dose 0.3-3 µM, time 5.0 hrs
[11] = molecular target: Stimulator of interferon genes protein (Homo sapiens) (UniProt Q86WV6); experiment: Inhibition of STING downstream signalling in human THP1-Dual cells assessed as inhibition of HT-DNA induced ISG15 mRNA expression at 0.3 to 3 uM pre-treated for 1 hr followed by stimulated with HT-DNA measured after 4 hrs by real-time PCR analysis; assay type: cell-based; settings: dose 0.3-3 µM, time 5.0 hrs
[12] = molecular target: Stimulator of interferon genes protein (Homo sapiens) (UniProt Q86WV6); experiment: Inhibition of human wild type STING (R232) expressed in human 293-Dual hSTING-R232 cells assessed as reduction in cGAMP-induced IL-6 expression; assay type: cell-based
[13] = molecular target: Stimulator of interferon genes protein (Homo sapiens) (UniProt Q86WV6); experiment: Inhibition of human wild type STING (R232) expressed in human 293-Dual hSTING-R232 cells assessed as reduction in cGAMP-induced TNF-alpha expression; assay type: cell-based
[14] = test system: Stimulator of interferon genes protein (Homo sapiens), Q86WV6 [UNDEFINED MUTATION]; experiment: Inhibition of human STING expressed in 293T-Dual-hSTING-AQ cells assessed as reduction in cGAMP-induced secreted luciferase reporter of interferon stimulated gene (ISG) measured after 24 hrs incubation; assay type: cell-based
Chain of Stimulator of interferon genes protein (Homo sapiens), Q86WV6 [UNDEFINED MUTATION] (Q86WV6 whole entry, looked up, change not shown): as the sequence (Q86WV6 whole entry) above

[15] = molecular target: T2, Stimulator of interferon genes protein (Mus musculus) (UniProt Q3TBT3); experiment: Inhibition of STING downstream signalling in mouse RAW264.7 cells assessed as inhibition of DMAAA induced TNFalpha secretion level at 0.3 to 3 uM pre-treated for 1 hr followed by stimulated with DMAAA measured after 24 hrs by ELISA; assay type: cell-based; settings: dose 0.3-3 µM, time 25.0 hrs
T2 sequence (whole entry): T1 sequence (Q3TBT3 whole entry)

[16] = molecular target: T2, Stimulator of interferon genes protein (Mus musculus); experiment: Inhibition of STING downstream signalling in mouse RAW264.7 cells assessed as inhibition of […] induced IL-6 secretion level at 0.3 to 3 uM pre-treated for 1 hr followed by stimulated with […] measured after 24 hrs by ELISA; assay type: cell-based; settings: dose 0.3-3 µM, time 25.0 hrs
[17] = molecular target: T2, Stimulator of interferon genes protein (Mus musculus); experiment: Inhibition of STING downstream signalling in mouse RAW264.7 cells assessed as inhibition of […] induced IP-10 secretion level at 0.3 to 3 uM pre-treated for 1 hr followed by stimulated with […] measured after 24 hrs by ELISA; assay type: cell-based; settings: dose 0.3-3 µM, time 25.0 hrs
[18] = molecular target: T2, Stimulator of interferon genes protein (Mus musculus); experiment: Inhibition of STING downstream signalling in mouse BMDM cells assessed as inhibition of MSA-2 induced Isg15 mRNA level pre-treated for 1 hr followed by stimulated with MSA-2 measured after 4 hrs by real-time PCR analysis; assay type: cell-based; settings: dose 0.3-3 µM, time 5.0 hrs
[19] = molecular target: T2, Stimulator of interferon genes protein (Mus musculus); experiment: Inhibition of STING downstream signalling in mouse BMDM cells assessed as inhibition of MSA-2 induced Isg56 mRNA level pre-treated for 1 hr followed by stimulated with MSA-2 measured after 4 hrs by real-time PCR analysis; assay type: cell-based; settings: dose 0.3-3 µM, time 5.0 hrs
Mus musculus [20] = experiment: Anti-inflammatory activity against MSA-2 induced C57BL/6 mouse inflammation model assessed as inhibition of MSA-2 induced TNF-alpha mRNA expression in kidney at 10 mg/kg, ip pre-treated for 1 hr followed by stimulated with MSA-2 for 4 hrs by real-time PCR analysis; assay type: functional, organism-based; settings: time 5.0 hrs
Mus musculus [21] = experiment: Anti-inflammatory activity against MSA-2 induced C57BL/6 mouse inflammation model assessed as inhibition of MSA-2 induced Isg56 RNA expression in kidney at 10 mg/kg, ip pre-treated for 1 hr followed by stimulated with MSA-2 for 4 hrs by real-time PCR analysis; assay type: functional, organism-based; settings: time 5.0 hrs
Mus musculus [22] = experiment: Anti-inflammatory activity against Cisplatin induced C57BL/6 mouse kidney inflammation model assessed as prevention of Cisplatin induced interstitial vacuolation at 5 mg/kg, ip treated for 3 days; assay type: functional, organism-based; settings: time 3.0 day
Mus musculus [23] = experiment: Anti-inflammatory activity against Cisplatin induced C57BL/6 mouse kidney inflammation model assessed as suppression of Cisplatin induced Isg56 mRNA level in kidney at 5 mg/kg, ip treated for 3 days by real-time PCR analysis; assay type: functional, organism-based; settings: time 3.0 day
HEK293 = experiment: Protection of Cisplatin induced apoptosis in human HEK293 cells assessed as apoptotic cells at 10 uM measured after 72 hrs by flow cytometry; assay type: functional, cell-based
Mus musculus [24] = experiment: Effect on Ifn-beta expression in Cisplatin induced C57BL/6 STING-KO mouse kidney inflammation model at 5 mg/kg, ip treated for 3 days by real-time PCR analysis; assay type: functional, organism-based; settings: time 3.0 day
Mus musculus [25] = experiment: Effect on […] expression in Cisplatin induced C57BL/6 STING-KO mouse kidney inflammation model at 5 mg/kg, ip treated for 3 days by real-time PCR analysis; assay type: functional, organism-based; settings: time 3.0 day
Mus musculus [26] = experiment: Anti-inflammatory activity in TREX1 D18N mouse model assessed as reduction in IL6 mRNA expression in kidney at 10 mg/kg, ip measured after 2 weeks; assay type: functional, organism-based
Mus musculus [27] = experiment: Anti-inflammatory activity in TREX1 D18N mouse model assessed as reduction in Cxcl10 mRNA expression in kidney at 10 mg/kg, ip measured after 2 weeks; assay type: functional, organism-based
Mus musculus [28] = experiment: Anti-inflammatory activity in TREX1 D18N mouse model assessed as reduction in Ccl5 mRNA expression in heart at 10 mg/kg, ip measured after 2 weeks; assay type: functional, organism-based

IC50 [1]: 96.3 nM
half-life [2]: 19.8 min
MRT inf [3]: 22.8 min
MRT [4]: 460 min
half-life [5]: 38.5 min
half-life [6]: 33.8 min
CLH [7]: 206 µL/min/mg
CLH [8]: 36.9 µL/min/mg
inhibition [9]: Dose-dependent-effect
inhibition [10]: Active
inhibition [11]: Active
inhibition [12]: Active
inhibition [13]: Active
inhibition [14]: Active
inhibition [15]: Active
inhibition [16]: Active
inhibition [17]: Active
inhibition [18]: Dose-dependent-effect
inhibition [19]: Dose-dependent-effect
Compound: N#CC/C=C/c1ccc2[nH]cc(NC(=O)Nc3ccc4c(c3)OC(F)(F)O4)c2c1
inhibition (Mus musculus [20]): Active
inhibition (Mus musculus [21]): Active
inhibition (Mus musculus [22]): inactive
inhibition (Mus musculus [23]): Active
Activity (HEK293): Active
Activity (Mus musculus [24]): inactive
Activity (Mus musculus [25]): inactive
Activity (Mus musculus [26]): Active
Activity (Mus musculus [27]): Active
Activity (Mus musculus [28]): Active
